{"source": "ChEMBL document CHEMBL1201862", "about": "“PubChem BioAssay data set” (2004)", "key": {"[1]": {"biological_target": "Voltage-dependent T-type calcium channel subunit alpha-1H (Homo sapiens, UniProt O95180)", "sequence (O95180 whole entry)": "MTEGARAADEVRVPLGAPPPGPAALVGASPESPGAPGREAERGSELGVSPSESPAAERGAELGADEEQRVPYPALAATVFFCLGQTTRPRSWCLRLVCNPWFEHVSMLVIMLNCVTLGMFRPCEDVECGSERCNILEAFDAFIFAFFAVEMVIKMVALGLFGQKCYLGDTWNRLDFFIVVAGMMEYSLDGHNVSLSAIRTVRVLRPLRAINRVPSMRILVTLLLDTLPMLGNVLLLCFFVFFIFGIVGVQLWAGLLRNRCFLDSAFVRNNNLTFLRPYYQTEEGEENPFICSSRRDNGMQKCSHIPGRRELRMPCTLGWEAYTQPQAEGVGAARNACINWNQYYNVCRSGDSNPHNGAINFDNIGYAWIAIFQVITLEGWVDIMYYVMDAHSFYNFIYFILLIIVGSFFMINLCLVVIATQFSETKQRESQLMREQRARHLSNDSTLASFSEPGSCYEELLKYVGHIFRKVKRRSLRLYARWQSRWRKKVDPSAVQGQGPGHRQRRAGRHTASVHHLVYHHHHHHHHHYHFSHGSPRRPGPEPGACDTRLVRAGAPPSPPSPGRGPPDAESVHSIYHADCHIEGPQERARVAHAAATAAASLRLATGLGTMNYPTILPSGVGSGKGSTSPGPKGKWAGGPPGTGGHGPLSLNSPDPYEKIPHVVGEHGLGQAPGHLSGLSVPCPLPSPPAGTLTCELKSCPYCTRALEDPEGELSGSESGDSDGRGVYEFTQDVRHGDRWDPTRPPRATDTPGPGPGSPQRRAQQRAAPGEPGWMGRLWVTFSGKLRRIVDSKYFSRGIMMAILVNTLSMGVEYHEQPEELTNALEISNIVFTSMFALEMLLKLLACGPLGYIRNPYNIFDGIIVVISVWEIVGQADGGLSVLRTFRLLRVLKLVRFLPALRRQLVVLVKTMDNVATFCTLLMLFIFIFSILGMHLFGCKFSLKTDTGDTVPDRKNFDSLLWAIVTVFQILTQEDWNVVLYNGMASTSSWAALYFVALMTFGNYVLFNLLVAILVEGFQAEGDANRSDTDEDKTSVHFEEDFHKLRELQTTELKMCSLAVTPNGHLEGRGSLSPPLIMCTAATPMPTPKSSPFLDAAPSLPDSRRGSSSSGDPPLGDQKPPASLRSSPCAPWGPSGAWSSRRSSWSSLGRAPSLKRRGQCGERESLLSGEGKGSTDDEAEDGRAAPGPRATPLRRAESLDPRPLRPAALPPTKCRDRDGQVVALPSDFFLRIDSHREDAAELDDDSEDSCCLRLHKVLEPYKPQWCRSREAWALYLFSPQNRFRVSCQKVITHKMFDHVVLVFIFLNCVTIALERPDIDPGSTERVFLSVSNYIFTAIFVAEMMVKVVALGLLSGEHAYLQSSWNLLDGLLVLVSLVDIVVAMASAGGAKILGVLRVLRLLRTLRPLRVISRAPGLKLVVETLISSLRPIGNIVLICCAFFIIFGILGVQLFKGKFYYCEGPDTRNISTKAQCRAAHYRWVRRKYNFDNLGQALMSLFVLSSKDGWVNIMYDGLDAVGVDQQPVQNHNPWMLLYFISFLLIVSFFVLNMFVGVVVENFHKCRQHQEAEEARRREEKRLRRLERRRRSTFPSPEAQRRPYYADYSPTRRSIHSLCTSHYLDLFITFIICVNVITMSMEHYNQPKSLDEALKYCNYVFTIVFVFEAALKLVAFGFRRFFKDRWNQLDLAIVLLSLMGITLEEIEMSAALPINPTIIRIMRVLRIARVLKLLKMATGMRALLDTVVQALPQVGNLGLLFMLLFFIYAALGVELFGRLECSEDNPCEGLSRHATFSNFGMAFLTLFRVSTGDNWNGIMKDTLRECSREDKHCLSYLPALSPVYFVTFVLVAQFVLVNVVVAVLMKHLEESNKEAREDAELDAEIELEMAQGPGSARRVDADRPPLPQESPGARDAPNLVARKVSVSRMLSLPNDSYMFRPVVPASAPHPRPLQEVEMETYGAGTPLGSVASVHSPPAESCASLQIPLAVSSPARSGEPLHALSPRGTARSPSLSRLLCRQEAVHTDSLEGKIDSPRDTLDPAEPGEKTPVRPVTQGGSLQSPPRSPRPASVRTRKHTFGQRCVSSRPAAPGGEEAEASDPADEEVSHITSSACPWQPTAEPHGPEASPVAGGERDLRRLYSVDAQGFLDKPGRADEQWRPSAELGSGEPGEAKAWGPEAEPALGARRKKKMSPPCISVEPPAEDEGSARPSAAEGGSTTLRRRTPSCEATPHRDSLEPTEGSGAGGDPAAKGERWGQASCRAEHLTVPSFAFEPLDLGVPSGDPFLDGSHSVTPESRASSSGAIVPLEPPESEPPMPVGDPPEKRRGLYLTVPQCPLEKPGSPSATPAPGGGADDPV", "assay_type": "functional"}, "Cytochrome P450 1A2": {"biological_target": "T1, Cytochrome P450 1A2 (Homo sapiens, UniProt P05177)", "T1 sequence (P05177 whole entry)": "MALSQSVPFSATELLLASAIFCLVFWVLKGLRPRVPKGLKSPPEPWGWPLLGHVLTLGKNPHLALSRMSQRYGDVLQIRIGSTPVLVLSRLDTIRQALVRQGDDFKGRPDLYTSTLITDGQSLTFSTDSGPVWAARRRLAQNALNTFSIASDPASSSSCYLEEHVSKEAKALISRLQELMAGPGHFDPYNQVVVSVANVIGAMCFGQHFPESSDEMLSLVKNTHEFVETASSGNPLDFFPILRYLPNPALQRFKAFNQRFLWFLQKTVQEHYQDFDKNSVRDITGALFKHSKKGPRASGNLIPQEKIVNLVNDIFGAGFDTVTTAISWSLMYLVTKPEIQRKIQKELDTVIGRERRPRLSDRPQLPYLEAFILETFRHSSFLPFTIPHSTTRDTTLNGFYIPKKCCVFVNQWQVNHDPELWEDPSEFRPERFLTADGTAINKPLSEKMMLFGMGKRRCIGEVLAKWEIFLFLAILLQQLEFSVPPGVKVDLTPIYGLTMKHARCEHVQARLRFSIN"}, "[2]": {"system": "Streptococcus sp. 'group A'", "assay": "Streptococcus pyogenes SK(-)GAS viability under kanamycin – luminescence, BacTiterGlo, confirmation, counter-screen for streptokinase expression inhibitor project, dose response (AID 1900)", "assay_type": "functional, organism-based"}, "Cytochrome P450 2C9": {"biological_target": "Cytochrome P450 2C9 (Homo sapiens, UniProt P11712)", "sequence (P11712 whole entry)": "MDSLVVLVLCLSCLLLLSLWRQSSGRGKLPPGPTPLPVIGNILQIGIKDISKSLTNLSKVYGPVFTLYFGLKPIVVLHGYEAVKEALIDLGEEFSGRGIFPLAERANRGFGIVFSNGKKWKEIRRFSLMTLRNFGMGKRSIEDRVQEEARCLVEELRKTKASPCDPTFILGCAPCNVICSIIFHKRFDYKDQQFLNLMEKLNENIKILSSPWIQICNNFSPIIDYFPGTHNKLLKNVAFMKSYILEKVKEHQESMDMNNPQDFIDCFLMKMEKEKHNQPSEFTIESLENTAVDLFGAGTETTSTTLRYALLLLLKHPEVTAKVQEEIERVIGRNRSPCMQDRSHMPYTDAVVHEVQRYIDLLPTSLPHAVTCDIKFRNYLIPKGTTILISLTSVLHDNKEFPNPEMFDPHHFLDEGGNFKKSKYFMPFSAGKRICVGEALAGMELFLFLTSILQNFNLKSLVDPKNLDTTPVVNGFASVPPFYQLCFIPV"}, "Streptokinase A": {"biological_target": "T2, Streptokinase A (Streptococcus pyogenes serotype M1, UniProt P10520)", "T2 sequence (P10520 whole entry)": "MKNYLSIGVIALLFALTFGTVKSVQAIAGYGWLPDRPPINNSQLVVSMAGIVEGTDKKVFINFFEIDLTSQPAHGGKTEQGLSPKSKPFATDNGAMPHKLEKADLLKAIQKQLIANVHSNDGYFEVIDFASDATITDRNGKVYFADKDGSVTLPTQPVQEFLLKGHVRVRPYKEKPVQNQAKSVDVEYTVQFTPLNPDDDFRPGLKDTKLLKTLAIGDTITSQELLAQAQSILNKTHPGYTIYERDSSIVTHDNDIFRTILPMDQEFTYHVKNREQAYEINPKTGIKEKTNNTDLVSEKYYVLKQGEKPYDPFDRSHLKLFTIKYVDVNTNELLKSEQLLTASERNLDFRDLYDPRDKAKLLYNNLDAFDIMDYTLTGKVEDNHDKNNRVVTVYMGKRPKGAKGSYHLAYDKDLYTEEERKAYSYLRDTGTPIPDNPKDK", "assay": "viability-normalized secreted streptokinase activity reduction – plasminogen activation absorbance, OD405, dose response (AID 1914);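 note: secreted streptokinase activity via plasminogen activation per viability signal from cell pellet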", "assay_type": "functional, Streptococcus pyogenes M1 GAS"}, "[3]": {"assay": "Luminescence Cell-Based Dose Retest to Confirm Inhibitors of Cancer Stem Cells. [Related pubchem assays (depositor defined):AID2717, AID2721]", "assay_type": "functional", "conditions": "Homo sapiens"}, "Cytochrome P450 2C19": {"biological_target": "Cytochrome P450 2C19 (Homo sapiens, UniProt P33261)", "sequence (P33261 whole entry)": "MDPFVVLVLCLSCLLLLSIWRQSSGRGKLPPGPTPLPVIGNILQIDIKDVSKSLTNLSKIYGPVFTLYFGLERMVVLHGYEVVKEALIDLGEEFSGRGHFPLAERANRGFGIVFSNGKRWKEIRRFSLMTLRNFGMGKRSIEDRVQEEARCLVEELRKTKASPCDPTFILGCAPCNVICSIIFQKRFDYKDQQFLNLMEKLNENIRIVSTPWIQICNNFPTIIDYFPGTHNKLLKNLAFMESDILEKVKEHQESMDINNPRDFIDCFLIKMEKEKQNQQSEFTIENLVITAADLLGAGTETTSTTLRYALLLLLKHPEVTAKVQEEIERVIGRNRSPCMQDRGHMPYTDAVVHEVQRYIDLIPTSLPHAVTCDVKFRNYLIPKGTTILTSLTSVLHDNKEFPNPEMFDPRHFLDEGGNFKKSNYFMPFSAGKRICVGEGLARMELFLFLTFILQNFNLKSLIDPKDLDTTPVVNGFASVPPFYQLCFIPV", "assay": "Cytochrome panel assay with activity outcomes. Panel member name: p450-cyp2c19 Compounds with AC50 equal or less than 10 uM are considered active", "assay_type": "functional", "conditions": "read-out: AC50"}, "Streptococcus": {"system": "Streptococcus", "assay": "GAS UMAA2166 growth inhibition – luminescence, BacTiterGlo, counter-screen for streptokinase expression inhibitor project, dose response (AID 1915);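 note: potency for reduction of bacterial viability or growth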", "assay_type": "functional, organism-based"}, "[4]": {"assay": "viability loss of HPDE-C7K cells – cell-based, fluorescence, HTS, primary screen (AID 431)", "assay_type": "functional", "conditions": "Homo sapiens"}, "[5]": {"assay": "viability of PTEN-deleted HCT116 cells – cell-based, HCT116 PTEN knockout, dose response (AID 1047);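 note: cells exposed to compound for 60 hours before readout; potency for loss of cell viability measured by luminescence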", "assay_type": "functional"}, "[6]": {"assay": "HPDE-C7 pancreatic duct cell viability loss – fluorescence, HTS (AID 430)", "assay_type": "functional, cell-based", "conditions": "Homo sapiens"}, "[7]": {"assay": "viability of HCT116 lacking mutant beta-catenin – cell-based, human colon tumor, dose response (AID 1045);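 note: cells exposed to compound for 60 hours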", "assay_type": "functional"}, "[8]": {"biological_target": "T3, Endoribonuclease toxin MazF (Escherichia coli K-12, UniProt P0AE70)", "T3 sequence (P0AE70 whole entry)": "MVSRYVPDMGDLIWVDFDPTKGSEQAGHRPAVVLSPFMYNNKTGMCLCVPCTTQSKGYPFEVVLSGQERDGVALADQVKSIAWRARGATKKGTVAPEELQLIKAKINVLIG", "assay": "activation of MazEF endoribonuclease cleavage – biochemical, fluorescence, single-stranded RNA substrate, uHTS hits, dose response (AID 588481)", "assay_type": "functional"}, "[9]": {"biological_target": "T3, Endoribonuclease toxin MazF", "assay": "substrate-only fluorescence increase artefacts – biochemical, single-stranded RNase substrate, counter-screen for MazEF activator project, dose response (AID 588502)", "assay_type": "functional"}, "[10]": {"assay": "Luminescence Cell-Based Dose Confirmation HTS to Identify Activators of 5'UTR Stem-Loop Driven Alpha-Synuclein mRNA Translation in H4 Neuroglioblastoma Cells. [Related pubchem assays: 1829 (Project Summary), 1814 (Primary HTS)]", "assay_type": "functional"}, "H4": {"system": "H4", "assay": "Luminescence Cell-Based Dose Response HTS to Identify Activators of 5'UTR Stem-Loop Driven Prion Protein mRNA Translation in H4 Neuroglioblastoma Cells. [Related pubchem assays: 1829 (Project Summary), 1814 (Primary HTS)]", "assay_type": "functional", "conditions": "Homo sapiens"}, "[11]": {"assay": "Luminescence Cell-Based Dose Response HTS to Identify Activators of Luciferase Translation or Activity in H4 […] Cells. [Related pubchem assays: 1829 (Project Summary), 1814 (Primary HTS)]", "assay_type": "functional"}, "[12]": {"assay": "HEK-293T viability loss after treatment – luminescence, T-cell screen hits, cytotoxicity control for TCR NF-kB inhibitor project, dose response (AID 489026);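 note: cells exposed to compound about 14 hours before the viability readout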", "assay_type": "functional, cell-based"}, "[13]": {"biological_target": "Induced myeloid leukemia cell differentiation protein Mcl-1 (Homo sapiens, UniProt Q07820)", "sequence (Q07820 whole entry)": "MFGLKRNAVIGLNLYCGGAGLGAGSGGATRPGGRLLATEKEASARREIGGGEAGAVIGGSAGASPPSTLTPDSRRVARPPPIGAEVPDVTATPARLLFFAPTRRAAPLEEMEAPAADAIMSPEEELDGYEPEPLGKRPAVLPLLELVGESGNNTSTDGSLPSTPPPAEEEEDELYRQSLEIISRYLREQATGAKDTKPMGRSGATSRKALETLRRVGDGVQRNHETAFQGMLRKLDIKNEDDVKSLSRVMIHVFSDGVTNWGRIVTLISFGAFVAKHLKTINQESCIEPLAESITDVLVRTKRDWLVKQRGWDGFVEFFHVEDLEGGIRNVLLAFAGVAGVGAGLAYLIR", "assay_type": "functional"}, "Genome polyprotein": {"biological_target": "Genome polyprotein (dengue virus type 2, UniProt P29990)", "sequence (P29990 2492-3391 limits assumed)": "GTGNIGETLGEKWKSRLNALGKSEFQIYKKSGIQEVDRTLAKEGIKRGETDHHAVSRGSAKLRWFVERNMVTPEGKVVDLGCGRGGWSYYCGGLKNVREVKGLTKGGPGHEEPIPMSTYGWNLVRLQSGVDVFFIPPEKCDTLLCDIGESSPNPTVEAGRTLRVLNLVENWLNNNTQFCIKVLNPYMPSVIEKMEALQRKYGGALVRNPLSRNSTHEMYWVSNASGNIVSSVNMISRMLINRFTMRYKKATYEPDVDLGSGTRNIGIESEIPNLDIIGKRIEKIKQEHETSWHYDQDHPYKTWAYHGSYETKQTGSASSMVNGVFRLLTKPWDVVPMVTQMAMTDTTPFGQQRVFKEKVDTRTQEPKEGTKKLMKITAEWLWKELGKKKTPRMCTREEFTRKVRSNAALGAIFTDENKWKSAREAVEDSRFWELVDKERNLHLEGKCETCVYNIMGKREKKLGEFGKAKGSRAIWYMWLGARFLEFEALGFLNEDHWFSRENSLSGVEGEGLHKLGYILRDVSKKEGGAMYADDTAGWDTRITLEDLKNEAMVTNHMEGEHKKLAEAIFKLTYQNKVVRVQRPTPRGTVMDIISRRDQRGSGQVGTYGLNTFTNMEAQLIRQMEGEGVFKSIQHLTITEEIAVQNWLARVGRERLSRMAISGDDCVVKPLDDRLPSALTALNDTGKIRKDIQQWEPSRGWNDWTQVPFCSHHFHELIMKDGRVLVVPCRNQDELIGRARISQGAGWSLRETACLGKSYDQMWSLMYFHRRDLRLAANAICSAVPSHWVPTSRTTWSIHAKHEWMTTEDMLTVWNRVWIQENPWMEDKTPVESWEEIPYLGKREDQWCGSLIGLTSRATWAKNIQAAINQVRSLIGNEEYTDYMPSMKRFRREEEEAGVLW", "assay": "flavivirus cap methylation enzyme inhibition – biochemical, confirmation dose response, primary screen (AID 588689)", "assay_type": "functional"}, "Cytochrome P450 3A4": {"biological_target": "Cytochrome P450 3A4 (Homo sapiens, UniProt P08684)", "sequence (P08684 whole entry)": "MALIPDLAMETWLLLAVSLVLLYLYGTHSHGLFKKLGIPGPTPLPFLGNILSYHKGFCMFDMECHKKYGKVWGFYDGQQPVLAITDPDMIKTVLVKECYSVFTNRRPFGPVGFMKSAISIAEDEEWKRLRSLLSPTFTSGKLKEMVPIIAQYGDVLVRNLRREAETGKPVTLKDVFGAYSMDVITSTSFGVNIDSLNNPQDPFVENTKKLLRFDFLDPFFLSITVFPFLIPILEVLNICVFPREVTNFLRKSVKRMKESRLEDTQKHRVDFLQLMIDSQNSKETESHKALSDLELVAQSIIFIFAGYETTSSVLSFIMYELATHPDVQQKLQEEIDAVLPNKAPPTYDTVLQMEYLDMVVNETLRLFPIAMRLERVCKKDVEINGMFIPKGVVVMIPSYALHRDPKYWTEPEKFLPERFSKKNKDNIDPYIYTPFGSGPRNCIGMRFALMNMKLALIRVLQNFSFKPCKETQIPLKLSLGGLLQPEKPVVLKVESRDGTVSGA"}}, "note": "Active and inactive are the calls of the source.", "data": [{"compound": "O=C(Nc1ccc2c(c1)CCC2)c1cccc(S(=O)(=O)N2CCN(c3ccccc3)CC2)c1", "values": [{"measurement": "EC50", "setting": "[1]", "result": "6.08 µM (active)"}]}, {"compound": "CCNc1nc(Oc2c(Cl)cccc2Cl)cc(C(F)(F)F)n1", "values": [{"measurement": "AC50", "setting": "Cytochrome P450 1A2", "result": "14.1 µM (inconclusive)"}, {"measurement": "EC50", "setting": "[2]", "result": "7.68 µM (active)"}, {"measurement": "AC50", "setting": "Cytochrome P450 2C9", "result": "inconclusive"}, {"measurement": "EC50", "setting": "Streptokinase A", "result": "17.6 µM (active)"}, {"measurement": "AC50", "setting": "[3]", "result": "8.17 µM (active)"}, {"measurement": "AC50", "setting": "Cytochrome P450 2C19", "result": "2 µM (inconclusive)"}, {"measurement": "EC50", "setting": "Streptococcus", "result": "> 150 µM (not active)"}]}, {"compound": "CCC(Sc1nc2cc3c(cc2c(=O)n1Cc1ccco1)OCO3)C(=O)Nc1cccc(OC)c1", "note": "(stereo unspecified)", "values": [{"measurement": "AC50", "setting": "Cytochrome P450 1A2", "result": "4.47 µM (inconclusive)"}, {"measurement": "EC50", "setting": "[4]", "result": "4.17 µM (active)"}, {"measurement": "EC50", "setting": "[5]", "result": "3.73 µM (active)"}, {"measurement": "EC50", "setting": "[6]", "result": "4.41 µM (active)"}, {"measurement": "EC50", "setting": "[7]", "result": "3.68 µM (active)"}]}, {"compound": "NNS(=O)(=O)c1ccc(N2CCCC2=O)c([N+](=O)[O-])c1", "values": [{"measurement": "EC50", "setting": "[8]", "result": "82 µM (inactive)"}, {"measurement": "EC50", "setting": "[9]", "result": "> 99 µM (inactive)"}]}, {"compound": "Cc1nc2ccc(C(=O)OCc3ccccc3Br)cc2nc1C", "values": [{"measurement": "EC50", "setting": "[10]", "result": "10.8 µM (active)"}, {"measurement": "EC50", "setting": "H4", "result": "0.281 µM (active)"}, {"measurement": "EC50", "setting": "[8]", "result": "> 99 µM (inactive)"}, {"measurement": "EC50", "setting": "[9]", "result": "> 99 µM (inactive)"}, {"measurement": "EC50", "setting": "[11]", "result": "66.7 µM (active)"}]}, {"compound": "Cc1ccc(-c2nc3ccccn3c2NCc2ccc3c(c2)OCO3)cc1", "values": [{"measurement": "EC50", "setting": "[1]", "result": "12.8 µM (active)"}]}, {"compound": "Cc1cccc(OCCNC(=O)c2ccc(Cl)c(S(=O)(=O)NCc3cccnc3)c2)c1", "values": [{"measurement": "IC50", "setting": "[12]", "result": "> 80 µM (inactive)"}]}, {"compound": "CC(=O)Nc1sc(N/N=C/c2ccc(O)cc2)nc1-c1ccc(C)cc1", "values": [{"measurement": "IC50", "setting": "[13]", "result": "2.84 µM (active)"}]}, {"compound": "Cc1ccc(S(=O)(=O)N(CC(=O)N/N=C\\c2cccs2)c2cccc3cccnc23)cc1", "values": [{"measurement": "EC50", "setting": "[8]", "result": "> 99 µM (inactive)"}, {"measurement": "EC50", "setting": "[9]", "result": "> 99 µM (inactive)"}]}, {"compound": "Nc1scc2c(C(=O)O)nn(-c3ccccc3)c(=O)c12", "values": [{"measurement": "IC50", "setting": "Genome polyprotein", "result": "45 µM (active)"}]}, {"compound": "COc1cc(N)c(Cl)cc1C(=O)NC1CCN(Cc2ccccc2)CC1", "note": "[CLEBOPRIDE]", "values": [{"measurement": "AC50", "setting": "Cytochrome P450 1A2", "result": "12.6 µM (inconclusive)"}, {"measurement": "AC50", "setting": "Cytochrome P450 3A4", "result": "3.16 µM (inconclusive)"}, {"measurement": "AC50", "setting": "Cytochrome P450 2C9", "result": "inconclusive"}]}, {"compound": "COc1ccc2c(c1O)-c1c(OC)c(OC)cc3c1[C@H](C2)N(C)CC3", "note": "[ISOCORYDINE]", "values": [{"measurement": "AC50", "setting": "Cytochrome P450 1A2", "result": "10 µM (inconclusive)"}, {"measurement": "AC50", "setting": "Cytochrome P450 2C9", "result": "inconclusive"}]}]}
